Measurements from paper PMC7385619, “A triple action CDK4/6-PI3K-BET inhibitor with augmented cancer cell cytotoxicity” (Cell Discovery, 2020).
Several values for one entry are separate records, joined by “and”; a condition that tells them apart may be missing. Equal values may be shown once. Read-outs that look alike come from different tables or passages of the source.

How the values were obtained:
Assay in all cases: KINOMEscan assay (Eurofins DiscoverX)
Format in all cases: binding
kinome (kinase panel) [1] = target: T1, kinome (kinase panel) (Homo sapiens, UniProt Q14012); conditions: CAMK1; 1000 nM; read-out: Percent Control
T1 construct: purchased Eurofins DiscoverX

kinome (kinase panel) [2] = target: T2, kinome (kinase panel) (Homo sapiens, UniProt O00750); conditions: PIK3C2B; 1000 nM; read-out: Percent Control
T2 construct: purchased Eurofins DiscoverX

kinome (kinase panel) [3] = target: T3, kinome (kinase panel) (Homo sapiens, UniProt Q6P2M8); conditions: CAMK1B (Entrez PNCK); 1000 nM; read-out: Percent Control
T3 construct: purchased Eurofins DiscoverX

kinome (kinase panel) [4] = target: T4, kinome (kinase panel) (Homo sapiens, UniProt P30291); conditions: WEE1; 1000 nM; read-out: Percent Control
T4 construct: purchased Eurofins DiscoverX

kinome (kinase panel) [5] = target: T5, kinome (kinase panel) (Homo sapiens, UniProt Q8NE63); conditions: HIPK4; 1000 nM; read-out: Percent Control
T5 construct: purchased Eurofins DiscoverX

kinome (kinase panel) [6] = target: T6, kinome (kinase panel) (Homo sapiens, UniProt P00519); conditions: 1000 nM, read-out: Percent Control
T6 construct: purchased Eurofins DiscoverX

kinome (kinase panel) [7] = target: T7, kinome (kinase panel) (Homo sapiens, UniProt P00519, F317L)
T7 construct: purchased Eurofins DiscoverX

kinome (kinase panel) [8] = target: T8, kinome (kinase panel) (Homo sapiens, UniProt P49760); conditions: CLK2; 1000 nM; read-out: Percent Control
T8 construct: purchased Eurofins DiscoverX

kinome (kinase panel) [9] = target: T9, kinome (kinase panel) (Homo sapiens, UniProt Q86UE8); conditions: TLK2; 1000 nM; read-out: Percent Control
T9 construct: purchased Eurofins DiscoverX

kinome (kinase panel) [10] = target: T10, kinome (kinase panel) (Homo sapiens, UniProt Q9H093); conditions: SNARK (NUAK2); 1000 nM; read-out: Percent Control
T10 construct: purchased Eurofins DiscoverX

kinome (kinase panel) [11] = target: T11, kinome (kinase panel) (Homo sapiens, UniProt O60331); conditions: PIP5K1C; 1000 nM; read-out: Percent Control
T11 construct: purchased Eurofins DiscoverX

kinome (kinase panel) [12] = target: T12, kinome (kinase panel) (Homo sapiens, UniProt Q8NFD2); conditions: ANKK1; 1000 nM; read-out: Percent Control
T12 construct: purchased Eurofins DiscoverX

kinome (kinase panel) [13] = target: T13, kinome (kinase panel) (Homo sapiens, UniProt P78356); conditions: PIP5K2B (Entrez PIP4K2B); 1000 nM; read-out: Percent Control
T13 construct: purchased Eurofins DiscoverX

kinome (kinase panel) [14] = target: T14, kinome (kinase panel) (Homo sapiens, UniProt Q13464); conditions: ROCK1; 1000 nM; read-out: Percent Control
T14 construct: purchased Eurofins DiscoverX

kinome (kinase panel) [15] = target: T15, kinome (kinase panel) (Homo sapiens, UniProt Q9Y243); conditions: AKT3; 1000 nM; read-out: Percent Control
T15 construct: purchased Eurofins DiscoverX

kinome (kinase panel) [16] = target: T16, kinome (kinase panel) (Homo sapiens, UniProt Q15208); conditions: NDR1 (Entrez STK38); 1000 nM; read-out: Percent Control
T16 construct: purchased Eurofins DiscoverX

kinome (kinase panel) [17] = target: T17, kinome (kinase panel) (Homo sapiens, UniProt Q9Y2U5); conditions: MAP3K2; 1000 nM; read-out: Percent Control
T17 construct: purchased Eurofins DiscoverX

kinome (kinase panel) [18] = target: T18, kinome (kinase panel) (Homo sapiens, UniProt P10721, V559D/V654A); conditions: read-out: Percent Control
T18 construct: purchased Eurofins DiscoverX

kinome (kinase panel) [19] = target: T19, kinome (kinase panel) (Homo sapiens, UniProt P25098); conditions: GRK2 (Entrez ADRBK1); 1000 nM; read-out: Percent Control
T19 construct: purchased Eurofins DiscoverX

kinome (kinase panel) [20] = target: T20, kinome (kinase panel) (Homo sapiens, UniProt P48729); conditions: CSNK1A1; 1000 nM; read-out: Percent Control
T20 construct: purchased Eurofins DiscoverX

kinome (kinase panel) [21] = target: T21, kinome (kinase panel) (Homo sapiens, UniProt P51956); conditions: NEK3; 1000 nM; read-out: Percent Control
T21 construct: purchased Eurofins DiscoverX

kinome (kinase panel) [22] = target: T22, kinome (kinase panel) (Homo sapiens, UniProt Q9Y6M4); conditions: CSNK1G3; 1000 nM; read-out: Percent Control
T22 construct: purchased Eurofins DiscoverX

kinome (kinase panel) [23] = target: T23, kinome (kinase panel) (Homo sapiens, UniProt P54756); conditions: EPHA5; 1000 nM; read-out: Percent Control
T23 construct: purchased Eurofins DiscoverX

kinome (kinase panel) [24] = target: T24, kinome (kinase panel) (Homo sapiens, UniProt Q9H0K1); conditions: SIK2; 1000 nM; read-out: Percent Control
T24 construct: purchased Eurofins DiscoverX

kinome (kinase panel) [25] = target: T25, kinome (kinase panel) (Homo sapiens, UniProt P21860); conditions: ERBB3; 1000 nM; read-out: Percent Control
T25 construct: purchased Eurofins DiscoverX

kinome (kinase panel) [26] = target: T26, kinome (kinase panel) (Homo sapiens, UniProt P42336, E542K); conditions: read-out: Percent Control
T26 construct: purchased Eurofins DiscoverX

kinome (kinase panel) [27] = target: T27, kinome (kinase panel) (Homo sapiens, UniProt P42336); conditions: PIK3CA; 1000 nM; read-out: Percent Control
T27 construct: purchased Eurofins DiscoverX

kinome (kinase panel) [28] = target: T28, kinome (kinase panel) (Homo sapiens, UniProt P35590); conditions: TIE1; 1000 nM; read-out: Percent Control
T28 construct: purchased Eurofins DiscoverX

kinome (kinase panel) [29] = target: T29, kinome (kinase panel) (Homo sapiens, UniProt Q56UN5); conditions: YSK4 (MAP3K19); 1000 nM; read-out: Percent Control
T29 construct: purchased Eurofins DiscoverX

kinome (kinase panel) [30] = target: T30, kinome (kinase panel) (Homo sapiens, UniProt P36888, D835Y); conditions: […]; 1000 nM; read-out: Percent Control
T30 construct: purchased Eurofins DiscoverX

kinome (kinase panel) [31] = target: T31, kinome (kinase panel) (Homo sapiens, UniProt P0C264); conditions: SgK110; 1000 nM; read-out: Percent Control
T31 construct: purchased Eurofins DiscoverX

kinome (kinase panel) [32] = target: T32, kinome (kinase panel) (Homo sapiens, UniProt P41743); conditions: PRKCI; 1000 nM; read-out: Percent Control
T32 construct: purchased Eurofins DiscoverX

kinome (kinase panel) [33] = target: T33, kinome (kinase panel) (Homo sapiens, UniProt Q9Y6E0); conditions: MST3 (Entrez STK24); 1000 nM; read-out: Percent Control
T33 construct: purchased Eurofins DiscoverX

T6 sequence (P00519 whole entry): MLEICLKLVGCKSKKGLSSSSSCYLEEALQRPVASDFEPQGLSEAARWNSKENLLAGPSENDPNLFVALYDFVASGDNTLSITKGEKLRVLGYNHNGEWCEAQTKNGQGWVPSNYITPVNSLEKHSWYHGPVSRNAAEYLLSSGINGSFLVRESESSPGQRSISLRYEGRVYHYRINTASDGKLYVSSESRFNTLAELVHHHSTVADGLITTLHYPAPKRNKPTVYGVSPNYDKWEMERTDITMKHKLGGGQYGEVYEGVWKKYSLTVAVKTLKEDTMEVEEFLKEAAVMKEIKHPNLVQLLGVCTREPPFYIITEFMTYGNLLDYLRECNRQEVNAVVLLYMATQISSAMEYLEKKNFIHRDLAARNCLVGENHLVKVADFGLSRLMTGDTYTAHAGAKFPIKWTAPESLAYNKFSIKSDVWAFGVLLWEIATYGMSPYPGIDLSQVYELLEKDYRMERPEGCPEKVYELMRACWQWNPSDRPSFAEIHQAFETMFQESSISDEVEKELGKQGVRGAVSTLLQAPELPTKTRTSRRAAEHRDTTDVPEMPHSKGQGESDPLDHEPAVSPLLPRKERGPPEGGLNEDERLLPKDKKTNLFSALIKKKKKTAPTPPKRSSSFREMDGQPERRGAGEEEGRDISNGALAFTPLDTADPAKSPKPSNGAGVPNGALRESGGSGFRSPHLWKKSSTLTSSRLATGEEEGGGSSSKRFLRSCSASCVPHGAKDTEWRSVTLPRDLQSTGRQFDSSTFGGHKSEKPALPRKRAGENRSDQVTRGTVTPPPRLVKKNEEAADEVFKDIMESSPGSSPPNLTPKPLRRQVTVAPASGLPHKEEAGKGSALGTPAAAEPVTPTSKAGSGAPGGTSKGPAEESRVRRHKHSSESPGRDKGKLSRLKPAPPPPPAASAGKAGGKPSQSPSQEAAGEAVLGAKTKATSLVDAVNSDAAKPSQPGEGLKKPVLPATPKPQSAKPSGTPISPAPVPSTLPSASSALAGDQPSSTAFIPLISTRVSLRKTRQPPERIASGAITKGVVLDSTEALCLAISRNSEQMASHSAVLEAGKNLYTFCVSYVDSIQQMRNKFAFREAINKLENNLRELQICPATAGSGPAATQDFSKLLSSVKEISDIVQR
T7 sequence (P00519 whole entry F317L): as the sequence (P00519 whole entry) above, with F317L counted along it
T18 sequence (P10721 26-976 V559D/V654A): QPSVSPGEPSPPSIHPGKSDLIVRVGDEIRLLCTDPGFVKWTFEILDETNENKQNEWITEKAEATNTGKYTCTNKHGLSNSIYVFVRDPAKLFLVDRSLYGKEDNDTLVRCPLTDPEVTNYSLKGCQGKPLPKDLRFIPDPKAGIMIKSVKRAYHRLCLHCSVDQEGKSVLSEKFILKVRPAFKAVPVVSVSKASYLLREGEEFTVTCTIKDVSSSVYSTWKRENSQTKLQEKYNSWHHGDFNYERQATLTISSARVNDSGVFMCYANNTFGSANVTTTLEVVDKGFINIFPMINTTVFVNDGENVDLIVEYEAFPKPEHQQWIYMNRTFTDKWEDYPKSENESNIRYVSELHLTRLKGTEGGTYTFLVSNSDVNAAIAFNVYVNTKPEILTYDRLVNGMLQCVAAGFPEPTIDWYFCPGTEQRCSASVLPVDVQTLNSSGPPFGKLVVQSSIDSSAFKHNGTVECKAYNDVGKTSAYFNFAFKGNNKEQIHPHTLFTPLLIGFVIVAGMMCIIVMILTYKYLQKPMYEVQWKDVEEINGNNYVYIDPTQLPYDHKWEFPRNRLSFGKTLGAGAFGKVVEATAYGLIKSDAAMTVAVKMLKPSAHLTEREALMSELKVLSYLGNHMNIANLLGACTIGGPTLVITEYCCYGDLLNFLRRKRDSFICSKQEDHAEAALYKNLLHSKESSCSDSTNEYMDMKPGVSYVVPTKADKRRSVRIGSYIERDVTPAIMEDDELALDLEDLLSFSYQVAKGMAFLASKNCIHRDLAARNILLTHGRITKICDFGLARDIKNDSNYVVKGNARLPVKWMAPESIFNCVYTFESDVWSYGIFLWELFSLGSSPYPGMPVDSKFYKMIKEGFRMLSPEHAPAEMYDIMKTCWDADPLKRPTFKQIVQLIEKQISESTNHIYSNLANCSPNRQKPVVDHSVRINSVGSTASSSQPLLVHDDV
T9 sequence (Q86UE8 whole entry): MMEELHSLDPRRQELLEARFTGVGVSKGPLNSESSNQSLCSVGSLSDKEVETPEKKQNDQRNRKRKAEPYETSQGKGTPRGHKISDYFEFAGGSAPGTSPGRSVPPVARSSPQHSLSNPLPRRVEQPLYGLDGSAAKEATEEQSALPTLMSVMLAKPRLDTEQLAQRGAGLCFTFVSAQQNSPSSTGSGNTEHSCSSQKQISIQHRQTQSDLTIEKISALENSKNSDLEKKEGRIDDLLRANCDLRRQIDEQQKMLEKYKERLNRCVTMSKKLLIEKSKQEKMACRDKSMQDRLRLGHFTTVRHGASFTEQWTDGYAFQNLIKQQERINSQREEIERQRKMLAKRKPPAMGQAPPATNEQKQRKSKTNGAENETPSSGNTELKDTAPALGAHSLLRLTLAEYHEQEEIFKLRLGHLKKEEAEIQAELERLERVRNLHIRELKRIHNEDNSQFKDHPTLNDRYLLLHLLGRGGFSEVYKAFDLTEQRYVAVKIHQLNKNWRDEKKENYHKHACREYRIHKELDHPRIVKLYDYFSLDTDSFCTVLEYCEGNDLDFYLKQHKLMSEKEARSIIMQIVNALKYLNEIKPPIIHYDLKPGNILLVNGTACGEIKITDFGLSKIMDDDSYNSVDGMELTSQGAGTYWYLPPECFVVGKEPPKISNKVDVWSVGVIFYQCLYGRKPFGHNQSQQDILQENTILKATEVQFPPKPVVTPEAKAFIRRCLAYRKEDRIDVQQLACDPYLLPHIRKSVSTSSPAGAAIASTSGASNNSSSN
T2 sequence (O00750 whole entry): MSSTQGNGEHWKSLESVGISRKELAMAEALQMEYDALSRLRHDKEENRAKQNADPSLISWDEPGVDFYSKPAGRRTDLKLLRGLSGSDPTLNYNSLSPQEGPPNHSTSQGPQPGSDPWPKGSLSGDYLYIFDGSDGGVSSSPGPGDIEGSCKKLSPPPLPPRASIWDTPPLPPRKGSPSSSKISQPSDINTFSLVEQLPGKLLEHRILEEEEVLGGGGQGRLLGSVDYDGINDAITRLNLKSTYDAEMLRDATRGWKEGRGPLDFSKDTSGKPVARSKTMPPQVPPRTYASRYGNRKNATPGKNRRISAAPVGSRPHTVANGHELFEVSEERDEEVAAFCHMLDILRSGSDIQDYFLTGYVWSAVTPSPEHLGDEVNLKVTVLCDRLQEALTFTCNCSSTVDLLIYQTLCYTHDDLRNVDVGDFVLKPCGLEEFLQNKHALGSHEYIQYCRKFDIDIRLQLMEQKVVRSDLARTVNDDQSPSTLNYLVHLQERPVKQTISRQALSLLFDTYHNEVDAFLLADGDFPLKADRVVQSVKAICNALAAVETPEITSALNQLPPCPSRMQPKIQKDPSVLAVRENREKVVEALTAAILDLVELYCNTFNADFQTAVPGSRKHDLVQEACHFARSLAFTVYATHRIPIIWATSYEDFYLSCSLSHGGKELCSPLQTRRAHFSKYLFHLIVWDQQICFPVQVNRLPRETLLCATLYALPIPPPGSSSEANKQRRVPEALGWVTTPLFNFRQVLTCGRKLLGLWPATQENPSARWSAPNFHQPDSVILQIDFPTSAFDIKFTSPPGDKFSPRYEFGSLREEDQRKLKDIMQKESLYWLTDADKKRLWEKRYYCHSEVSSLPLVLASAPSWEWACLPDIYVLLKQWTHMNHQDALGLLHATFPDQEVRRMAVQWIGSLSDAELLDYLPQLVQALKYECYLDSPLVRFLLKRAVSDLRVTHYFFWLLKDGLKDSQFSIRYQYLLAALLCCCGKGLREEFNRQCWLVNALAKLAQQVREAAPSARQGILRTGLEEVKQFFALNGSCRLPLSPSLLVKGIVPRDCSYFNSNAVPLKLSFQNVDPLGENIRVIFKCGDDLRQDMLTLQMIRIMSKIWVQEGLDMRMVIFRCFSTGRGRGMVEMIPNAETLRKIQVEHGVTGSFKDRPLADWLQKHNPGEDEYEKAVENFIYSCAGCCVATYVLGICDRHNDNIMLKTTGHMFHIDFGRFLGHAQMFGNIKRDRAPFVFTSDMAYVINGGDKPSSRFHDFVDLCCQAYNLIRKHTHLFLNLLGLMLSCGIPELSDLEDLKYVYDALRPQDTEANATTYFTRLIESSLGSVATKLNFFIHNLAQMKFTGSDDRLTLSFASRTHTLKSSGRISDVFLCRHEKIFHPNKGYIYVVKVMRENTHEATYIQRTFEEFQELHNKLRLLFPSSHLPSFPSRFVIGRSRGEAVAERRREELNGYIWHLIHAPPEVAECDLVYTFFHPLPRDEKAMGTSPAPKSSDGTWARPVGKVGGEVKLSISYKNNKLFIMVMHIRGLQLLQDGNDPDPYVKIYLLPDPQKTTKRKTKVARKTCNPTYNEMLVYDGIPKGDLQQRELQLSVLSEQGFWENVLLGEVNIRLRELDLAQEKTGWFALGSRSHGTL
T8 sequence (P49760 whole entry): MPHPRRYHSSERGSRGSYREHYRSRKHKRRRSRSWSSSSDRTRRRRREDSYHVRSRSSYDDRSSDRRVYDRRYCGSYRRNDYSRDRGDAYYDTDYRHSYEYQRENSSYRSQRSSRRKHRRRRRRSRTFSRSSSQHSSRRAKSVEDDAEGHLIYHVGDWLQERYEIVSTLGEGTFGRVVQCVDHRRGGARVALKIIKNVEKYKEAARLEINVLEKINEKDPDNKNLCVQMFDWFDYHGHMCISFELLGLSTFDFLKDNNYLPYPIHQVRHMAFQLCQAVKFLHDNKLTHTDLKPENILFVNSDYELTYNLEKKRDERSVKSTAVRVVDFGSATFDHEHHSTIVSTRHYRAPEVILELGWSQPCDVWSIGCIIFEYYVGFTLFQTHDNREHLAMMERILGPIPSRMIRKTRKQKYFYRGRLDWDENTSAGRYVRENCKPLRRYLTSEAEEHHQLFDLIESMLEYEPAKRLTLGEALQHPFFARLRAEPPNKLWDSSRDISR

`CN(C)C(=O)c1cc2cnc(Nc3ccc(-c4csc5c(=O)cc(N6CCOCC6)oc45)cc3)nc2n1C1CCCC1` [SRX3177] was tested, and the remaining binding at 1 µM (kinome (kinase panel) [1]) was 51%, the remaining binding at 1 µM (kinome (kinase panel) [2]) was 86% and the remaining binding at 1 µM (kinome (kinase panel) [3]) was 41%. It also gave a remaining binding at 1 µM (kinome (kinase panel) [4]) of 99%, a remaining binding at 1 µM (kinome (kinase panel) [5]) of 79% and a remaining binding at 1 µM (kinome (kinase panel) [6]; ABL1-nonphosphorylated) of 78%. The remaining binding at 1 µM (kinome (kinase panel) [6]; ABL1-phosphorylated) was 63%, the “Percent Control” value (kinome (kinase panel) [7]) was 89 and 56 and the remaining binding at 1 µM (kinome (kinase panel) [8]) was 92%. The remaining binding at 1 µM (kinome (kinase panel) [9]) was 100%, the remaining binding at 1 µM (kinome (kinase panel) [10]) was 70% and the remaining binding at 1 µM (kinome (kinase panel) [11]) was 87%. The remaining binding at 1 µM (kinome (kinase panel) [12]) was 50%, the remaining binding at 1 µM (kinome (kinase panel) [13]) was 48% and the remaining binding at 1 µM (kinome (kinase panel) [14]) was 87%. For the same molecule, the remaining binding at 1 µM (kinome (kinase panel) [15]) was 100%, the remaining binding at 1 µM (kinome (kinase panel) [16]) was 99% and the remaining binding at 1 µM (kinome (kinase panel) [17]) was 72%. The remaining binding at 1 µM (kinome (kinase panel) [18]) was 100%, the remaining binding at 1 µM (kinome (kinase panel) [19]) was 73% and the remaining binding at 1 µM (kinome (kinase panel) [20]) was 83%. For the same molecule, the remaining binding at 1 µM (kinome (kinase panel) [21]) was 90%, the remaining binding at 1 µM (kinome (kinase panel) [22]) was 100% and the remaining binding at 1 µM (kinome (kinase panel) [23]) was 100%. It also gave a remaining binding at 1 µM (kinome (kinase panel) [24]) of 58%, a remaining binding at 1 µM (kinome (kinase panel) [25]) of 59% and a remaining binding at 1 µM (kinome (kinase panel) [26]) of 40%. For the same molecule, the remaining binding at 1 µM (kinome (kinase panel) [27]) was 72%, the remaining binding at 1 µM (kinome (kinase panel) [28]) was 77% and the remaining binding at 1 µM (kinome (kinase panel) [29]) was 65%. The remaining binding at 1 µM (kinome (kinase panel) [30]) was 83%, the remaining binding at 1 µM (kinome (kinase panel) [31]) was 38% and the remaining binding at 1 µM (kinome (kinase panel) [32]) was 89%. For the same molecule, the remaining binding at 1 µM (kinome (kinase panel) [33]) was 93%.
